As a reminder, the Ki is the equilibrium dissociation constant of an inhibitor or competing ligand from its target. As usually defined, the IC50 is the point on the concentration scale where inhibition reaches its midpoint. Low values mean higher potency, high ones lower potency.

Where two headings read alike, the source gives them in different places.

Consider six compounds from article PMC6407594 (Journal of Enzyme Inhibition and Medicinal Chemistry, 2019).

Data set [1] deals with T1, murine SMOX (Mus musculus, UniProt Q99K82). The experiment in a line: Inhibition of SMOX activity, spermine as substrate. Format: biochemical. Particulars: for SMOX Kmapp/Km0: 50 μM compound, relative to control.
In another data set the target is murine PAOX (Mus musculus, UniProt Q8C0L6). In words: Inhibition of PAOX activity, N1AcSPM as substrate. It counts as biochemical. Particulars: for PAOX Kmapp/Km0: 50 μM compound, relative to control; for PAOX Kmapp: Km of N1AcSPM in the presence of 50 μM compound.
In data set [2] the target is PAOX activity in HT22 cells (Mus musculus, UniProt Q8C0L6). The experiment in a line: PAOX activity in whole HT22 cells. Format: cell-based.
For data set [3] the following is noted: cited from earlier work.
For the next data set, the system named is ODC. As to conditions: at a concentration of 10 μM; cited from earlier work.
A further data set concerns SSAT. As to conditions: at a concentration of 10 μM; cited from earlier work.
In a further data set the test system is MAOs. The experiment in a line: Amine oxidase activity in HT22 cell lysate, tyramine as substrate. It counts as biochemical, mouse. As to conditions: tyramine 1 mM, after pre-incubation with inhibitor.
Data set [4] concerns the target T1, murine SMOX. Particulars: read-out: SMOX Ki; purified murine SMOX; cited from earlier work.
For a further data set, the system named is human MAO A. Particulars: cited from earlier work.
Where [5] appears, read: Km of SPM in the presence of 50 μM compound.

T1 sequence (Q99K82 whole entry): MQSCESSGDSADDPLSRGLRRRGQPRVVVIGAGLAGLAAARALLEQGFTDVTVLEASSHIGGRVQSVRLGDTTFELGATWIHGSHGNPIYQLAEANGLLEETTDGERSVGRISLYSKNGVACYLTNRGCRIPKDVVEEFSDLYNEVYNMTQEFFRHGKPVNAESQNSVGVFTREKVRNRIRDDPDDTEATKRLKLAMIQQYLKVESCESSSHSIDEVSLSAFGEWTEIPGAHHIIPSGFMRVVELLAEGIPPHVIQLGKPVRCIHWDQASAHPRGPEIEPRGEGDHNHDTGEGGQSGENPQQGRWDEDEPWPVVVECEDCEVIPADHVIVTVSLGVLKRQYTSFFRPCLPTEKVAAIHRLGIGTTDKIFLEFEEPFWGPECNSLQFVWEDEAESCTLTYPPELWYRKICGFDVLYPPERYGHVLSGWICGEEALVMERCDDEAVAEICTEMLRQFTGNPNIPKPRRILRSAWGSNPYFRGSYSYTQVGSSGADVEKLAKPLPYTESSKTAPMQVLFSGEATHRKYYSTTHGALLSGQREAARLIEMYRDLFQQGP
murine PAOX, sequence (Q8C0L6 whole entry): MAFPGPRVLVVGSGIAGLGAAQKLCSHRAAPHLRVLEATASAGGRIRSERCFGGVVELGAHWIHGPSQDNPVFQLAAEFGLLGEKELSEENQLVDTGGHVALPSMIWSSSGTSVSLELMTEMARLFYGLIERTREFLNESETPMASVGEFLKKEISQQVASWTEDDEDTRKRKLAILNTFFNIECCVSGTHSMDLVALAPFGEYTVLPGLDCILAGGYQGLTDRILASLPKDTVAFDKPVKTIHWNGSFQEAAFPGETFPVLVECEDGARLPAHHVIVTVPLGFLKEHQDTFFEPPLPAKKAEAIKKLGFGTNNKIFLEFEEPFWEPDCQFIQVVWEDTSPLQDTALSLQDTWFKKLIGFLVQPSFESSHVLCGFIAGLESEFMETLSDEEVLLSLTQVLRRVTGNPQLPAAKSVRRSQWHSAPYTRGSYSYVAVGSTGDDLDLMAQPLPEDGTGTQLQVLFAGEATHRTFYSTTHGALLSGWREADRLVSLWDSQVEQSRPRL
PAOX activity in HT22 cells, sequence (Q8C0L6 whole entry): as above

In the case of `COc1ccccc1CNCCCCCCNCCCCCCCCNCCCCCCNCc1ccccc1OC` [Compound 10, Methoctramine], the Ki was 1.2 ± 0.1 µM at murine SMOX [1] and 0.01 ± 0.0015 µM at murine PAOX. The “SMOX Kmapp/Km0” value on murine SMOX [1] worked out at 18. The “SMOX Kmapp” value at murine SMOX [1] (setting [5]) came to 8940 ± 1600 µM. The “Mode of inhibition of SMOX” value on murine SMOX [1] (double reciprocal plots) is given as “competitive inhibitors”. Also, on murine PAOX (double reciprocal plots), the “Mode of inhibition of PAOX” value is “competitive inhibitors”. The IC50 in data set [2] is 0.16 ± 0.01 µM. Also, the “IC50 in HT22 cells relative to Ki of recombinant enzyme” value in [2] (IC50/Ki) is recorded as “about 16 times”. Also, the Cytotoxicity entry in data set [3] is reported as “low cytotoxicity”. Further, in the data set with ODC, the “Effect on ODC” value is “did not significantly affect”. In addition, the “Effect on SSAT” value with SSAT is recorded as “did not significantly affect”.
Consider `C#CCN(C)Cc1ccccc1` [pargyline], for which, in the data set on MAOs, the “Activity with tyramine with respect to control sample” value was 2%.
On to `NCCCCCCCCCCCCN` [DIADO, 1,12-diaminododecane, reference compound], for which, on murine SMOX [1], the “SMOX Kmapp/Km0” value is 1.2. In addition, at murine SMOX [1] (setting [5]), the “SMOX Kmapp” value was 600 ± 100 µM. For the same compound, on murine PAOX, the “PAOX Kmapp/Km0” value came out at 9 and the “PAOX Kmapp” value is 3.40 ± 0.26 µM. On murine SMOX [4], the Ki was more than 1000 µM. For the same compound, the “Behaviour towards MAO A” value in the data set with human MAO A is given as “excellent substrate”.
Regarding `c1ccc(CNCCCCCCCCCCCCNCc2ccccc2)cc1` [Compound 9, N1,N^12-dibenzyldodecanediamine], the “SMOX Kmapp/Km0” value at murine SMOX [1] was 2.3. In addition, the “SMOX Kmapp” value on murine SMOX [1] (setting [5]) turned out to be 1135 ± 141 µM. Besides, on murine PAOX, the “PAOX Kmapp/Km0” value came out at 108 and the “PAOX Kmapp” value was 41 ± 221 µM.
The like results for `COc1ccccc1CN(C)CCCCCC(=O)N(C)CCCCCCCCN(C)C(=O)CCCCCN(C)Cc1ccccc1OC` [Compound 14, Caproctamine] were, in that order, 1.21, 598 ± 156 µM, 112 and 43 ± 9 µM.
For `[H]/N=C(\N/C(=N/[H])NCCCCCCNC(=N)NC(=N)Nc1ccc(Cl)cc1)Nc1ccc(Cl)cc1` [Chlorhexidine, chlorhexidine, reference compound], on murine SMOX [1], the Ki turned out to be 3.8 ± 0.2 µM and the “SMOX Kmapp” value came out at 1402 ± 124 µM.
